According to patent US5559232A, “Carboxamides” (Hoffmann-La Roche Inc., priority 1993, dated 1996):

Tests used:
[1] = molecular target: human thrombin (Homo sapiens, UniProt P00734); assay: inhibition of the amidolytic activity of thrombin (chromogenic substrate S-2238); assay type: biochemical; settings: for Ki: human thrombin 0.5 nM, substrate S-2238, pH 7.8, room temperature; for q (ratio of the inhibition of trypsin to the inhibition of thrombin): specificity: Ki trypsin / Ki thrombin
Experimental: A differential inhibition of thrombin and other serine proteases by the above compounds is desirable in order to obtain compounds having as high a specificity as possible and at the same time to avoid possible side-effects.
Specific chromogenic peptide substrates can be used to determine the inhibition of the catalytic activity of the above proteases. The inhibition of the amidolytic activity of thrombin and trypsin by the above guanidines was determined as described hereinafter.
The measurements were carried out on microtitre plates at room temperature. For this, in each well of the plate 150 μl of buffer (50 mM Tris, 100 mM NaCl, 0.1% polyethylene glycol; pH 7.8) were mixed with 50 μl of the inhibitor dissolved in DMSO and diluted in the buffer, and 25 μl of human thrombin (0.5 nM final conc.) were added. After incubation for 10 minutes the reaction was started by the addition of chromogenic substrate S-2238 (H-D-Phe-Pip-Arg-paranitroaniline from Kabivitrum; 10 or 50 μm final conc.) and the hydrolysis of the substrate was followed spectrophotometrically on a kinetic microtiter plate reader for 5 minutes. After graphical presentation of the inhibition curves the Ki values were determined according to the method described in Blochem. J. 55, 1955, 170-171.

[2] = molecular target: trypsin; assay: inhibition of the amidolytic activity of trypsin (chromogenic substrate S-2251); assay type: biochemical; settings: substrate S-2251, 200 and 750 μM, otherwise analogous to thrombin

CCOC(=O)CN(C(=O)[C@H](CC(=O)NC[C@@H]1CCCN(C(=N)N)C1)NC(=O)Cc1ccccc1)C1CC1 [Example 13e]
Ki [1]: 2.6 µM | q (ratio of the inhibition of trypsin to the inhibition of thrombin) [1]: 35 | Ki [2]: 91 µM

CC(C)(C)OC(=O)N[C@@H](CC(=O)NC[C@@H]1CCCN(C(=N)N)C1)C(=O)N(CCNC(=O)c1cnccn1)C1CC1 [Example 19, (S)-N4-[(S)-1-(amino-imino-methyl)-piperidin-3-yimethyl]-2-tert-butoxycarbonylamino-N1-cyclopropyl-N1-(2-pyrazin-2-ylcarbonylamino)-succinamide]
Ki [1]: 0.0069 µM | q (ratio of the inhibition of trypsin to the inhibition of thrombin) [1]: 449 | Ki [2]: 3.1 µM

CCOC(=O)CCN(C(=O)[C@H](CC(=O)NCC1CN(C(=N)N)CCO1)NC(=O)OCc1ccccc1)C1CC1 (stereo partly drawn) [Example 5c, ethyl 3-[[(S)-3-[4-(amino-imino-methyl)-morpholin-2-ylmethylcarbamoyl]-2-benzyloxycarbonylamino-propionyl]-cyclopropyl-amino]-propionate]
Ki [1]: 0.054 µM | q (ratio of the inhibition of trypsin to the inhibition of thrombin) [1]: 537 | Ki [2]: 29 µM

CCCCC(=O)N[C@@H](CC(=O)NC[C@@H]1CCCN(C(=N)N)C1)C(=O)N(CC(=O)OCC)C1CC1 [Example 13a, Ethyl [[(S)-3-[(S)-1-(amino-imino-methyl)-piperidin-3-ylmethylcarbamoyl]-2-pentanoylamino-propionyl]-cyclopropyl-amino]acetate]
Ki [1]: 2.7 µM | q (ratio of the inhibition of trypsin to the inhibition of thrombin) [1]: 26 | Ki [2]: 70 µM

N=C(N)N1CCC[C@@H](CNC(=O)C[C@H](NC(=O)NCc2ccccc2)C(=O)N(CC(=O)O)C2CC2)C1 [Example 11, [[(S)-3-[(S)-1-(amino-imino-methyl)-piperidin-3-ylmethylcarbamoyl]2-(3-benzyl-ureido)-propionyl]-cyclopropyl-amino]-acetic acid]
Ki [1]: 0.043 µM | q (ratio of the inhibition of trypsin to the inhibition of thrombin) [1]: 814 | Ki [2]: 35 µM

N=C(N)N1CCC[C@@H](CNC(=O)C[C@H](NC(=O)CCc2c[nH]c3ccccc23)C(=O)N(CCNC(=O)c2cnccn2)C2CC2)C1 [Example 21a, (S)-N4-[(S)-1-(amino-imino-methyl)-piperidin-3-ylmethyl]-N1-cyclopropyl-2-(3-indol-3-yl-propionylamino)-N1-(2-pyrazin-2-ylcarbonylamino-ethyl)-succinamide]
Ki [1]: 0.0023 µM | q (ratio of the inhibition of trypsin to the inhibition of thrombin) [1]: 3870 | Ki [2]: 8.9 µM

N=C(N)N1CCC[C@@H](CNC(=O)C[C@H](NS(=O)(=O)N2CCOCC2)C(=O)N(CCNC(=O)c2ccc(=O)[nH]n2)C2CC2)C1 [Example 25]
Ki [1]: 0.0013 µM | q (ratio of the inhibition of trypsin to the inhibition of thrombin) [1]: 5538 | Ki [2]: 7.2 µM

CCCCS(=O)(=O)N1CCN(CC(=O)O)C(=O)C1CC(=O)NC[C@@H]1CCCN(C(=N)N)C1 (stereo partly drawn) [Example 17, [3-[(S)-1-(amino-imino-methyl)-piperidin-3-ylmethylcarbamoylmethyl]-4-butylsulphonyl-2-oxo-piperazin-1yl]acetic acid]
Ki [1]: 1.3 µM | q (ratio of the inhibition of trypsin to the inhibition of thrombin) [1]: 74 | Ki [2]: 96 µM

CCCCN(CCC(=O)O)C(=O)[C@H](CC(=O)NCC1CN(C(=N)N)CCO1)NC(=O)OCc1ccccc1 (stereo partly drawn) [Example 6d, 3-[[(S)-3-[4-(amino-imino-methyl)-morpholin-2-ylmethylcarbamoyl]-2-benzyloxycarbonylamino-propionyl]-butyl-amino]propionic acid]
Ki [1]: 0.94 µM | q (ratio of the inhibition of trypsin to the inhibition of thrombin) [1]: 90 | Ki [2]: 85 µM

COC(=O)CC[C@H](O)C(=O)N[C@@H](CC(=O)NC[C@@H]1CCCN(C(=N)N)C1)C(=O)N(CCNC(=O)c1cnccn1)C1CC1 [Example 21b, methyl (S)-4-[(S)-2-[(S)-1-(amino-imino-methyl)-piperidin-3-ylmethylcarbonyl]-1-[cyclopropyl-(2-pyrazin-2-ylcarbonylaminoethyl)-carbamoyl]-ethylcarbamoyl]-4-hydroxy-butrate]
Ki [1]: 0.0072 µM | q (ratio of the inhibition of trypsin to the inhibition of thrombin) [1]: 1944 | Ki [2]: 14 µM

CCCCN(CC(=O)OCC)C(=O)[C@H](CC(=O)NC[C@@H]1CCCN(C(=N)N)C1)NC(=O)OCc1ccccc1 [Example 2b, ethyl [[(S)-3-[(S)-1-(amino-imino-methyl)-piperidin-3-ylmethylcarbamoyl]-2-benzyloxycarbonylamino-propionyl]-butyl-amino]acetate]
Ki [1]: 0.61 µM | q (ratio of the inhibition of trypsin to the inhibition of thrombin) [1]: 92 | Ki [2]: 56 µM

CCOC(=O)CN(C(=O)[C@H](CC(=O)NC[C@@H]1CCCN(C(=N)N)C1)NC(=O)NCc1ccco1)C1CC1 [Example 9b1, Ethyl [[(S)-3-[(S)-1-(amino-imino-methyl)-piperidin-3-ylmethylcarbamoyl]-2-(3-furan-2-ylmethyl-ureido)-propionyl]-cyclopropyl-amino]-acetate]
Ki [1]: 1.5 µM | q (ratio of the inhibition of trypsin to the inhibition of thrombin) [1]: 53 | Ki [2]: 80 µM

N=C(N)N1CCC[C@@H](CNC(=O)C[C@H]2C(=O)N(C3CCCC3)CC(=O)N2S(=O)(=O)c2ccc3ccccc3c2)C1 [Example 16, N-[(S)-1-(amino-imino-methyl)-piperidin-3-ylmethyl]-2[(S)-4-cyclopentyl-1-naphthalen-2-ylsulphonyl-3,6-dioxopiperazin-2-yl]-acetamide]
Ki [1]: 0.11 µM | q (ratio of the inhibition of trypsin to the inhibition of thrombin) [1]: 127 | Ki [2]: 14 µM

CCCCN(CC(=O)O)C(=O)[C@H](CC(=O)NCC1CN(C(=N)N)CCO1)NC(=O)OCc1ccccc1 (stereo partly drawn) [Example 6b, [[(S)-3-[4-(amino-imino-methyl)-morpholin-2-ylmethylcarbamoyl]-2-benzyloxycarbonylamino-propionyl]-butyl-amino]-acetic acid]
Ki [1]: 0.0035 µM | q (ratio of the inhibition of trypsin to the inhibition of thrombin) [1]: 18571 | Ki [2]: 65 µM
